Structures can show the parent of a compound that is named as a salt. A value given as a limit tells only on which side of the number the result lay.

The EC50 is the concentration needed to bring the measured effect to its halfway point.

Sequence of human activated kallikrein enzyme (P03952 391-638 limits assumed): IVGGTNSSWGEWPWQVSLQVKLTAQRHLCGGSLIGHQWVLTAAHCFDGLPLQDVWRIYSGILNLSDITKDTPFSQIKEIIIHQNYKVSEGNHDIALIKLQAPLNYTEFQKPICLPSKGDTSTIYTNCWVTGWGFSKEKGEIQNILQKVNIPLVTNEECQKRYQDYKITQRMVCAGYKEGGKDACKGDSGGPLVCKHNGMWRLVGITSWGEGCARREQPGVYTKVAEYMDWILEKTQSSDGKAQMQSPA
Sequence of human activated kallikrein enzyme (P03952 20-390 partner limits assumed): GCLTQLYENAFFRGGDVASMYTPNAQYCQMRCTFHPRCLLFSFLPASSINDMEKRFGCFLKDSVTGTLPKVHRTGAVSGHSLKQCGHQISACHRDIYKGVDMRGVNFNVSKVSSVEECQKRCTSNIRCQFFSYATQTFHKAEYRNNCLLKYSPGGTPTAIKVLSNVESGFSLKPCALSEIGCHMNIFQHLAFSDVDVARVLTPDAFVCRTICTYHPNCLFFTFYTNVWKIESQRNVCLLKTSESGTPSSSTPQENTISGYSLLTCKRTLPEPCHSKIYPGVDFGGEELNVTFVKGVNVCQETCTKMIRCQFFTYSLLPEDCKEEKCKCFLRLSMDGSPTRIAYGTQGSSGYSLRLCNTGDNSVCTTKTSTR

The experiment addresses human activated kallikrein enzyme (Homo sapiens, UniProt P03952). The experiment can be described thus: Inhibition of human activated kallikrein enzyme, fluorogenic peptide substrate assay (500 pM enzyme format). Type of experiment: biochemical. The following applies: 500 pM activated kallikrein, 300 μM PFR-AMC substrate, 30 min preincubation, 10 min reaction, room temperature; read-out: Primary Dose Response Assay: Average EC50. Here is the method: Compounds were evaluated for inhibition of the human activated kallikrein enzyme in two formats of an assay employing a fluorogenic peptide substrate. In one assay format, the concentrations of reagents were as follows: 20 mM Tris pH 7.5, 1 mM EDTA, 150 mM sodium chloride, 0.1% PEG-400, 0.1% Triton X-100, 500 pM activated kallikrein enzyme, 300 μM Pro-Phe-Arg-7-amido-4-methylcoumarin (PFR-AMC) substrate. Prior to reaction initiation with substrate, enzyme and inhibitors were preincubated for 30 min at room temperature. After initiation with substrate, reactions were incubated for 10 min at room temperature and fluorescence emission at 460 nm from 380 nm excitation measured with a microplate reader. In another assay format, the concentrations of reagents were as follows: 20 mM Tris pH 7.5, 1 mM EDTA, 150 mM sodium chloride, 0.1% PEG-400, 0.1% Triton X-100, 5 pM activated kallikrein enzyme, 300 uM PFR-AMC substrate. Prior to reaction initiation with substrate, enzyme and inhibitors were preincubated for 30 min at room temperature. After initiation with substrate, reactions were incubated for 18 hr at room temperature and fluorescence emission at 460 nm from 380 nm excitation measured with a microplate reader.
Table 1 provides the results of the assay in the format with 500 pM activated kallikrein assay. For the compounds listed in Table 1, the EC50 values are reported according to the following ranges: A≤5.0 nM; 5.0 nM<B≤50 nM; 50 nM<C≤500 nM; 500 nM<D≤9000 nM; 9000 nM<E.
Turning to `Cc1cc(C(=N)N)cc(C)c1CNc1cc(NCc2cn3cc(C4CC4)ccc3n2)ncn1` [Example 99, 4-(((6-(((6-cyclopropylimidazo[1,2-a]pyridin-2-yl)methyl)amino)pyrimidin-4-yl)amino)methyl)-3,5-dimethylbenzimidamide], the half-maximal effective concentration (EC50) is at most 0.005 µM.
With `Cc1cc(C(=N)N)cc(C)c1CNc1cc(OCc2cn3cc(C4CC4)ccc3n2)nc(CCC(=O)O)n1` [Example 74, 3-(4-((4-carbamimidoyl-2,6-dimethylbenzyl)amino)-6-((6-cyclopropylimidazo[1,2-a]pyridin-2-yl)methoxy)pyrimidin-2-yl)propanoic acid formic acid salt], the EC50 is at most 0.005 µM.
For `Cc1cc(C(=N)N)cc(C)c1CNc1cc(OCc2cn3cc(C4CC4)ccc3n2)nc(CC(C)(C)C(=O)O)n1` [Example 92, 3-(4-((4-carbamimidoyl-2,6-dimethylbenzyl)amino)-6-((6-cyclopropylimidazo[1,2-a]pyridin-2-yl)methoxy)pyrimidin-2-yl)-2,2-dimethylpropanoic acid], the EC50 is at most 0.005 µM.
For the compound `O=C(Cc1cnc2[nH]cc(Cl)c2c1)Nc1cc(NCc2cn3cc(C4CC4)ccc3n2)ncn1` [Example 129, 2-(3-chloro-1H-pyrrolo[2,3-b]pyridin-5-yl)-N-(6-(((6-cyclopropylimidazo[1,2-a]pyridin-2-yl)methyl)amino)pyrimidin-4-yl)acetamide], the 50% effective concentration (EC50) was 0.05 to 0.5 µM.
As for `CCOC(=O)Cc1cc(C2CC2)cn2cc(COc3cc(NCc4c(C)cc(C(=N)N)cc4C)ncn3)nc12` [Example 94, ethyl 2-(2-((6-(4-carbamimidoyl-2,6-dimethylbenzylamino)pyrimidin-4-yloxy)methyl)-6-cyclopropylimidazo[1,2-a]pyridin-8-yl)acetate], the figure is at most 0.005 µM; as for `COc1ccc(CNc2cc(NCc3cn4cc(C5CC5)ccc4n3)ncn2)c(OC)c1` [Example 136, N^4-((6-cyclopropylimidazo[1,2-a]pyridin-2-yl)methyl)-N^6-(2,4-dimethoxybenzyl)pyrimidine-4,6-diamine], 0.5 to 9 µM.
For the compound `CC(O)c1nc(NCc2cn3cc(C4CC4)ccc3n2)cc(NC(=O)Cc2ncn3ccc(Cl)cc23)n1` (centres unmarked) [Example 103, 2-(7-chloroimidazo[1,5-a]pyridin-1-yl)-N-(6-(((6-cyclopropylimidazo[1,2-a]pyridin-2-yl)methyl)amino)-2-(1-hydroxyethyl)pyrimidin-4-yl)acetamide], the concentration giving a half-maximal response (EC50) is at most 0.005 µM.
Take `O=C(CCc1cccc(Cl)c1)Nc1cc(NCc2cn3cc(C4CC4)ccc3n2)ncn1` [Example 8, 3-(3-chlorophenyl)-N-(6-(((6-cyclopropylimidazo[1,2-a]pyridin-2-yl)methyl)amino)pyrimidin-4-yl)propanamide]: the EC50 lay in the range of 0.5 to 9 µM.
The figure for `Cc1cc(C(=N)N)cc(C)c1CNc1cc(OCc2cn3cc(C4CC4)ccc3n2)nc(-c2nn[nH]n2)n1` [Example 91, 4-(((6-((6-cyclopropylimidazo[1,2-a]pyridin-2-yl)methoxy)-2-(2H-tetrazol-5-yl)pyrimidin-4-yl)amino)methyl)-3,5-dimethylbenzimidamide] is at most 0.005 µM; for `O=C(Cc1ncn2ccc(Cl)cc12)Nc1cncnc1NCc1cn2c(F)c(C3CC3)ccc2n1` [Example 43, 2-(7-chloroimidazo[1,5-a]pyridin-1-yl)-N-(4-(((6-cyclopropyl-5-fluoroimidazo[1,2-a]pyridin-2-yl)methyl)amino)pyrimidin-5-yl)acetamide] it is 0.005 to 0.05 µM.
As for `O=C(Cc1ncn2ccc(Cl)cc12)Nc1cc(C(F)(F)c2cn3cc(C4CC4)ccc3n2)ncn1` [Example 60, 2-(7-chloroimidazo[1,5-a]pyridin-1-yl)-N-(6-((6-cyclopropylimidazo[1,2-a]pyridin-2-yl)difluoromethyl)pyrimidin-4-yl)acetamide formic acid salt], the figure is 0.05 to 0.5 µM.
With `O=C(CNc1cc(Cl)ccc1-n1cnnn1)Nc1cc(NCc2cn3cc(C4CC4)ccc3n2)ccn1` [Example 117, 2-((5-chloro-2-(1H-tetrazol-1-yl)phenyl)amino)-N-(4-(((6-cyclopropylimidazo[1,2-a]pyridin-2-yl)methyl)amino)pyridin-2-yl)acetamide], the EC50 lay in the range of 0.005 to 0.05 µM.
Take `O=c1c(NCc2cn3cc(C4CC4)ccc3n2)c(NCc2ncn3ccc(Cl)cc23)c1=O` [Example 68, 3-(((7-chloroimidazo[1,5-a]pyridin-1-yl)methyl)amino)-4-(((6-cyclopropylimidazo[1,2-a]pyridin-2-yl)methyl)amino)cyclobut-3-ene-1,2-dione]: the EC50 was 0.005 to 0.05 µM.
Take `O=C(Cc1ncn2ccc(Cl)cc12)Nc1cc(NCc2cn3cc(C4CC4)cc(CO)c3n2)ncn1` [Example 44, 2-(7-chloroimidazo[1,5-a]pyridin-1-yl)-N-(6-(((6-cyclopropyl-8-(hydroxymethyl)imidazo[1,2-a]pyridin-2-yl)methyl)amino)pyrimidin-4-yl)acetamide]: the EC50 was at most 0.005 µM.
Regarding `O=C(Nc1cc(NCc2cn3cc(C4CC4)ccc3n2)ccn1)c1ccc2ccc(Cl)cc2c1` [Example 118, 7-chloro-N-(4-(((6-cyclopropylimidazo[1,2-a]pyridin-2-yl)methyl)amino)pyridin-2-yl)-2-naphthamide], the EC50 lay within 0.05 to 0.5 µM.
For the compound `O=C(Cc1ncn2ccc(Cl)cc12)Nc1cncnc1NCc1cn2cc(C3CC3)cc(CO)c2n1` [Example 41, 2-(7-chloroimidazo[1,5-a]pyridin-1-yl)-N-(4-(((6-cyclopropyl-8-(hydroxymethyl)imidazo[1,2-a]pyridin-2-yl)methyl)amino)pyrimidin-5-yl)acetamide], the EC50 is 0.005 to 0.05 µM.
For `O[C@H]1C[C@H](c2cn3cc(C4CC4)ccc3n2)N(c2cc(NCc3cnc4[nH]cc(Cl)c4c3)ncn2)C1` [Example 137, (3S,5R)-1-(6-(((3-chloro-1H-pyrrolo[2,3-b]pyridin-5-yl)methyl)amino)pyrimidin-4-yl)-5-(6-cyclopropylimidazo[1,2-a]pyridin-2-yl)pyrrolidin-3-ol], the EC50 fell in the range of 0.05 to 0.5 µM.
`O=C(Cc1cnc2[nH]cc(Cl)c2c1)Nc1cc(NCc2cn3cc(C4CC4)ccc3n2)ccn1` [Example 130, 2-(3-chloro-1H-pyrrolo[2,3-b]pyridin-5-yl)-N-(4-(((6-cyclopropylimidazo[1,2-a]pyridin-2-yl)methyl)amino)pyridin-2-yl)acetamide]: the EC50 was at most 0.005 µM.
With `O=C(Cc1ncn2ccc(Cl)cc12)Nc1cc(OCc2cn3cc(C4CC4)ccc3n2)ncn1` [Example 33, 2-(7-chloroimidazo[1,5-a]pyridin-1-yl)-N-(6-((6-cyclopropylimidazo[1,2-a]pyridin-2-yl)methoxy)pyrimidin-4-yl)acetamide], the EC50 is 0.005 to 0.05 µM.
In the case of `CC(Cc1cccc(Cl)c1)C(=O)Nc1cc(NCc2cn3cc(C4CC4)ccc3n2)ncn1` (centres unmarked) [Example 7, 3-(3-chlorophenyl)-N-(6-(((6-cyclopropylimidazo[1,2-a]pyridin-2-yl)methyl)amino)pyrimidin-4-yl)-2-methylpropanamide], the concentration for a half-maximal effect (EC50) lay within 0.5 to 9 µM.
With `CC(=O)c1nc(NCc2cn3cc(C4CC4)ccc3n2)cc(NC(=O)Cc2ncn3ccc(Cl)cc23)n1` [Example 102, N-(2-acetyl-6-(((6-cyclopropylimidazo[1,2-a]pyridin-2-yl)methyl)amino)pyrimidin-4-yl)-2-(7-chloroimidazo[1,5-a]pyridin-1-yl)acetamide], the EC50 is at most 0.005 µM.
As for `CC(C)(Cc1cc(C2CC2)cn2cc(CNc3cc(NC(=O)Cc4ncn5ccc(Cl)cc45)ncn3)nc12)C(=O)O` [Example 40, 3-(2-(((6-(2-(7-chloroimidazo[1,5-a]pyridin-1-yl)acetamido)pyrimidin-4-yl)amino)methyl)-6-cyclopropylimidazo[1,2-a]pyridin-8-yl)-2,2-dimethylpropanoic acid], the figure is at most 0.005 µM; as for `O=C(Cc1cc2c(Cl)c[nH]c2cc1F)Nc1cc(NCc2cn3cc(C4CC4)ccc3n2)ncn1` [Example 131, 2-(3-chloro-6-fluoro-1H-indol-5-yl)-N-(6-(((6-cyclopropylimidazo[1,2-a]pyridin-2-yl)methyl)amino)pyrimidin-4-yl)acetamide], 0.5 to 9 µM.
As for `COCCOc1nc(NCc2cn3cc(C4CC4)ccc3n2)cc(NC(=O)Cc2ncn3ccc(Cl)cc23)n1` [Example 100, 2-(7-chloroimidazo[1,5-a]pyridin-1-yl)-N-(6-(((6-cyclopropylimidazo[1,2-a]pyridin-2-yl)methyl)amino)-2-(2-methoxyethoxy)pyrimidin-4-yl)acetamide], the figure is 0.005 to 0.05 µM.
As for `CCOC(=O)NC(=N)c1cc(C)c(CNc2cc(OCc3cn4cc(C5CC5)ccc4n3)nc(C(=O)O)n2)c(C)c1` [Example 88, 4-((6-cyclopropylimidazo[1,2-a]pyridin-2-yl)methoxy)-6-(4-(N-(ethoxycarbonyl)carbamimidoyl)-2,6-dimethylbenzylamino)pyrimidine-2-carboxylic acid], the figure is at most 0.005 µM.
On to `O=C(/C=C/c1cccc(Cl)c1)Nc1cc(NCc2cn3cc(C4CC4)ccc3n2)ccn1` [Example 114, (E)-3-(3-chlorophenyl)-N-(4-(((6-cyclopropylimidazo[1,2-a]pyridin-2-yl)methyl)amino)pyridin-2-yl)acrylamide], for which the concentration giving a half-maximal response (EC50) fell in the range of 0.005 to 0.05 µM.

These data come from patent US20240382482A1, “PLASMA KALLIKREIN INHIBITORS” (TAKEDA PHARMACEUTICAL COMPANY LIMITED, priority 2021, published 2024).
